Measurements taken from patent EP4335865A1, “INTERACTION BETWEEN A GLYCOLIPID AND MAJOR CAPSID PROTEIN (VP1) OF SHEEP POLYOMAVIRUS AND, METHODS, KITS AND USES THEREOF” (Eberhard-Karls-Universität Tübingen, priority 2022, dated 2024).

What was measured:
ShPyV VP1 [1] = experiment: Saturation-transfer difference (STD) NMR in solution; type: binding, sheep polyomavirus (ShPyV); conditions: 1 mM Forssman pentaose and 1 mM 6'SL in presence of 20 µM ShPyV VP1, 298 K
Text: To assess whether the interaction of ShPyV VP1 to Forssman pentaose (FP), the glycan portion of Forssman glycolipid, also occurs in a more physiologic setting (i.e., in solution), the inventors conducted a saturation-transfer difference (STD) NMR experiment. […] Thereby, the protein resonances remain invisible. 59,60 The inventors recorded the STD-NMR resonances from a sample comprising VP1 and the oligosaccharides Forssman pentaose and 6sialyllactose (6'SL) as ligands, for which the inventors also provide reference spectra (Fig. 2B-C). […] Since excitation transfer heavily falls off with distance, VP1 is expected to contact an extensive portion of FP during the binding event.
All nuclear magnetic resonance (NMR) data were collected in a Bruker AVIII-600 MHz spectrometer equipped with a TXI-z probe head at 298 K. The inventors performed the experiments using 3 mm NMR tubes. Samples were provided in 99 % D2O-PBS containing 20 mM KH2PO4/K2HPO4 (pH 7.4) and 150 mM NaCl. Initially, ^1H reference spectra of isolate oligosaccharides samples (4 mM Forssman pentaose and 2 mM 6'SL, respectively) were recorded. Subsequently, the ^1H resonances of a sample comprising 1 mM Forssman pentaose and 1 mM 6'SL in presence of 20 µM ShPyV VP1 were collected. From the same sample, the saturation difference transfer (STD) NMR experiment was performed. […]

[2] = system: major capsid protein VP1 of sheep polyomavirus (ShPyV); experiment: Glycan microarray screening of recombinant VP1; type: binding; conditions: broad spectrum glycan microarray of over 900 different carbohydrate structures
Text: To identify potential attachment factors of sheep polyomavirus (ShPyV), the inventors subjected the recombinantly expressed major capsid protein VP1 to broad spectrum glycan microarray screening of over 900 different carbohydrate structures (Fig. 1A). […] Among the four strongest reliable signals in the glycan array, which are depicted in figure 1, two stem from glycans carrying α→6 linked sialic acids, which are 9-O-Acetyl-N-acetylneuraminic acid (Neu5,9Ac) and N-glycolyl-neuraminic acid (Neu5Gc).
Among all carbohydrates in the glycan array the Forssman glycolipid is the only probe that features the Forssman disaccharide GalNAcα→3GalNAcβ.

ShPyV VP1 [3] = experiment: Derivatization of VP1 crystals with oligosaccharides and structure solution; type: binding, sheep polyomavirus (ShPyV); conditions: crystals soaked with oligosaccharide (10 mM globo-N-tetraose)
Text: The inventors presume that the Forssman disaccharide GalNAcα^5→3GalNAc^4, which promotes the hydrophobic interactions to VP1, is the main determinant for tropism. To corroborate this hypothesis, the inventors derivatized ShPyV VP1 crystals with globo-N-tetraose (Gb4), the glycan of the globoseries P antigen and molecular precursor of FP, and determined the structure of the complex (Table S2).
Additionally, the structural elucidation of the VP1-FP complex allows for the superposition of the epitopes of other aGalNAc antigens such as A (GalNAcα→3(Fucα→2)Gal-R) and Tn (GalNAcα→O-Ser/Thr) into the identified Forssman binding site.
Purified ShPyV VP1 was concentrated to 3.5 mg/ml. Crystallization droplets were set up comprising 1 µl protein and 1 µl reservoir solution (150 mM KSCN and 20 % (w/v) PEG 3,350). The droplets were equilibrated against the 500 µl reservoir using the hanging drop vapor diffusion method at 20 °C. For ligand derivatization, VP1 crystals were soaked in crystallization solution supplemented with the respective oligosaccharides (10 mM FA pentaose, 10 mM globo-N-tetraose, 5 mM FA pentaose + 20 mM 3'SLN, and 5 mM pentaose + 20 mM 6'SLN), at 20 °C for half an hour. Prior to flash freezing, crystals were transferred to soaking solutions supplemented with 20 % (v/v) MPD for cryo-protection. X-ray diffraction experiments were performed using the Swiss Light Source (SLS) beamline X06DA at the PSI (Villigen, Switzerland). Data were collected at a wavelength of 1 Å and an excitation time and angle of 0.1 s and 0.1° per image, respectively. All carbohydrates were purchased from Carbosynth, UK.
X-ray diffraction images were integrated and scaled using XDS software. For each data set, 2000-3000 reflections were reserved as a test set for structure validation. Phases were determined by molecular replacement using the native sheep polyomavirus VP1 structure as search model (PDB ID 6Y61) in PHASER (CCP4). […]

[4] = system: FORS+ cell binding by HPA; experiment: Inhibition assay of HPA binding to ovine blood cells; type: cell-based, sheep; conditions: exceeding amounts of trisaccharide inhibitor (Fig. 5C)
Description: The inventors also examine the engagement of FORS- human erythrocytes by ShPyV VP1 and compare the results to HPA, which is a commonly used indicator for aberrant glycosylation in cancerogenesis. […] In contrast, FORS+ cell binding by HPA is inhibited by exceeding amounts of both F-tri and A-tri (Fig. 5C).
Erythrocytes from defibrinated blood were diluted into FACS buffer (1× PBS + 2 % FCS) to a density of 10×10^6 cells / mL. Samples of 1×10^6 cells were incubated with labeled protein at room temperature for 30 minutes with occasional shaking. Samples were then directly transferred to the flow cytometer (LSR II, BD Biosciences). Singlet cells were gated and the fluorescent population was captured at […]. M1/87-FITC (Santa Cruz Biotechnology) and HPA Alexa Fluor™ 488 conjugate (Invitrogen), respectively were used as references. Defibrinated sheep and bovine blood were purchased from TCS Biosciences Ltd and BioTrading Benelux B.V., respectively.

[5] = target: human Gal-9 carbohydrate recognition domain (CRD) (Homo sapiens, UniProt O00182); conditions: carbohydrate library screening, reference 62; cited from earlier work
ShPyV VP1 [6] = experiment: Crystallographic affinity determination (glycan dilution series in VP1 crystals); type: binding, sheep polyomavirus (ShPyV); conditions: approximate; integrated FP electron density vs concentration, Michaelis-Menten approach; 10 mM down to 0.0195 mM FP; read-out: dissociation constant between VP1 and FP (crystallographic, Kdc)
Text: Due to the costliness of Forssman glycans, conventional biophysical affinity determination techniques were not applied. To still establish an approximate dissociation constant value, the inventors derivatize isomorphous ShPyV VP1 crystals with serially diluted Forssman pentaose (FP) solution and collect the diffraction data.
To approximate the affinity towards FA pentaose (FP) the inventors prepared a glycan dilution series in VP1 crystals, an approach that was successfully utilized in the past. [16,23]_VP1 crystals were grown as described above. The reference soaking solution (10 mM FP in 150 mM KSCN, 20 % (w/v) PEG 3,350 and 20 % (v/v) MPD) was diluted using 1:2 steps down to a final concentration of 0.0195 mM. Distinct crystals and equal soaking times were used for the parallel derivatization with FP at the different concentrations. Data collection was performed as described above. For processing, the unit cell constants of all data sets were treated as isomorphous. All diffraction intensities were scaled against the 10 mM FP reference data set using scaleit. A single structure solution was sufficient for all data sets. A VP1 model lacking all water and carbohydrate atoms, and a control tripeptide (AA 143-145) in all chains, was used for simulated annealing refinement (Phenix). […]

Chain of human Gal-9 carbohydrate recognition domain (CRD) (O00182 1-148 limits assumed): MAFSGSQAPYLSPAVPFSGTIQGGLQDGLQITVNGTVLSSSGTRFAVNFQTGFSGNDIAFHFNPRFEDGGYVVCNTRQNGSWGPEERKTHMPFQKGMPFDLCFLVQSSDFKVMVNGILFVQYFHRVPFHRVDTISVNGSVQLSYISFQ

| Molecule | glycan array response (binding to VP1) [2] | also measured |
| --- | --- | --- |
| CC(=O)N[C@H]1[C@H]([C@H](O)[C@H](O)CO)O[C@@](OC[C@H]2O[C@@H](O[C@H]3[C@H](O)[C@@H](O)[C@H](O)O[C@@H]3CO)[C@H](O)[C@@H](O)[C@H]2O)(C(=O)O)C[C@@H]1O [6'SL, 6'sialyllactose] |  | STD-NMR binding to VP1 (ShPyV VP1 [1]): signal of a third methyl group in the STD-NMR spectrum manifests as the only transferred resonance |
| CC(=O)N[C@H]1[C@H]([C@H](O)[C@H](O)CO)O[C@](OC[C@H]2O[C@@H](O[C@H]3[C@H](O)[C@@H](NC(C)=O)C(O)O[C@@H]3CO)[C@H](O)[C@@H](O)[C@H]2O)(C(=O)O)C[C@@H]1O (stereo partly shown) [6'sialyllactosamine] | relatively weak |  |
| CC(=O)N[C@H]1[C@@H](O[C@H]2[C@@H](O)[C@@H](CO)O[C@@H](O)[C@@H]2O[C@@H]2O[C@@H](C)[C@@H](O)[C@@H](O)[C@@H]2O)O[C@H](CO)[C@H](O)[C@@H]1O [A antigen trisaccharide] |  | ligand electron density / binding in derivatized VP1 crystals (ShPyV VP1 [3]): unliganded VP1 pentamers; inhibition of FORS+ cell binding by HPA [4]: inhibited |
| CC(=O)N[C@H]1[C@@H](O[C@H]2[C@@H](O)[C@@H](CO)O[C@@H](O[C@H]3[C@@H](O)[C@@H](CO)O[C@H](O[C@@H]4[C@H](O)[C@@H](O)[C@H](O[C@H]5[C@H](O)[C@@H](O)C(O)O[C@@H]5CO)O[C@@H]4CO)[C@@H]3O)[C@@H]2NC(C)=O)O[C@H](CO)[C@H](O)[C@@H]1O (stereo partly shown) [FP, GalNAcα^5→3GalNAcβ^4→3Galα^3→4Galβ^2→4Glc^1] |  | Kd [5]: 0.3 µM; STD-NMR binding to VP1 (ShPyV VP1 [1]): binding of FP to VP1; Kd (ShPyV VP1 [6]): ~38.2 µM |
| CC(=O)N[C@H]1C(O)O[C@H](CO[C@@H]2O[C@H](CO)[C@H](O)[C@H](O)[C@H]2O)[C@H](O)[C@@H]1O (stereo partly shown) [Galβ-6GalNAc disaccharide, Galβ-6GalNAc] | relatively strong signal |  |
| CC(=O)NC1C(OC2C(O)C(CO)OC(OC3C(CO)OC(OC4C(CO)OC(O)C(O)C4O)C(O)C3O)C2O)OC(CO)C(O)C1O (stereo not shown) [Gb4, globo-N-tetraose] |  | ligand electron density / binding in derivatized VP1 crystals (ShPyV VP1 [3]): negligible binding affinity |
| GD3 tetraose | relatively weak |  |
| GM1 pentaose | relatively weak |  |
| GTic oligosaccharide | relatively weak |  |
| GalNAcα1→3GalNAcβ1→3Galα1→4Galβ1→4Glcβ1->1Cer [Forssman glycolipid] | surprisingly strong response |  |
| GalNAcα→3(Fucα→2)Gal-R [A antigen] | no significant binding |  |
| GalNAcα→O-Ser/Thr [Tn antigen] | no significant binding |  |
| Galβ→3-Tn [T antigen] |  | ligand electron density / binding in derivatized VP1 crystals (ShPyV VP1 [3]): unliganded VP1 pentamers |
